Patent US12448388B2, “PRMT5 inhibitors and uses thereof” (Gilead Sciences, Inc., priority 2023, dated 2025)
Where two headings read alike, the source gives them in different places.

Test system: HCT116 MTAP-deleted cell lines
Experiment: Cell viability assay (CellTiter-Glo, 7 days), HCT116 MTAP-deleted
Type: cell-based
Settings: Homo sapiens, HCT-116, HCT116 MTAP-deleted, class symbols, read-out: CC50
Procedure: Control compounds were analyzed in parallel each time for quality control. In Brief, on Day -1, a serial dilution of stock compounds in DMSO was performed using BioMek liquid handlers and dispensed using Echo acoustic dispenser into 384 well plates. Both tool compounds and sample compounds were spotted in the same plate for a dose response of PRMT5 inhibitors. Compound plates were stored as frozen until the cells were ready for seeding. […] After equilibrating the plate in room temperature, the cells were incubated for 7 days inside the sealed incubator set at 37° C. with 90% humidity and 5% CO2. On Day 7, the viability of cells was measured using a CTG assay kit (CellTitre-Glo;Promega cat no. G7573). Shortly, 40 μl per well of luminescent cell viability assay reagent were dispensed using EL460 liquid dispenser 5 μl cassette. CTG luminescence signal was measured using an EnVision plate reader (PerkinElmer) in accordance with manufacturer's instruction. […] Selectivity with * is artificially high due to limited solubility of the compound hampering accurate measurement of WT CC50.

Structure (SMILES) | CC50 (cell viability assay) | CC50 (cell viability)
Nc1nc2cc(F)c(C(=O)N3CCO[C@@H]4Cc5c(ccc(C(F)(F)F)c5F)[C@@H]43)cc2n2cncc12 [Ff-691, (4-amino-7-fluoroimidazo[1,5-a]quinoxalin-8-yl)((4aS,9aR)-8-fluoro-7-(trifluoromethyl)-2,3,9,9a-tetrahydroindeno[2,1-b][1,4]oxazin-4(4aH)-yl)methanone] | 100 to 1000 nM | 
Nc1nc2cc(F)c(C(=O)N(Cc3ccc(C(F)(F)F)cn3)c3cnn4ccccc34)cc2n2cncc12 [Ff-423, 4-amino-7-fluoro-N-pyrazolo[1,5-a]pyridin-3-yl-N-[[5-(trifluoromethyl)-2-pyridyl]methyl]imidazo[1,5-a]quinoxaline-8-carboxamide] | < 100 nM | 
Cc1ncn2c1c(N)nc1cc(F)c(C(=O)N(Cc3ccc(C(F)(F)F)cn3)C3(C)CC3)cc12 [Ff-590, 4-amino-7-fluoro-3-methyl-N-(1-methylcyclopropyl)-N-((5-(trifluoromethyl)pyridin-2-yl)methyl)imidazo[1,5-a]quinoxaline-8-carboxamide] | < 100 nM | 
COCc1cc(C(F)(F)F)ccc1CN(C)C(=O)c1ccc2nc(N)c3cncn3c2c1 [Ff-126, 4-amino-N-(2-(methoxymethyl)-4-(trifluoromethyl)benzyl)-N-methylimidazo[1,5-a]quinoxaline-8-carboxamide] |  | 100 to 1000 nM
Cc1ncn2c1c(N)nc1cnc(C(=O)N3C[C@H](F)CC4Oc5cc(C(F)(F)F)ccc5C43)cc12 (mixture of isomers) [Ff-650, Rac-(4-amino-3-methylimidazo[1,5-a]pyrido[3,4-e]pyrazin-8-yl)((3R,4aS,9bS)-3-fluoro-7-(trifluoromethyl)-3,4,4a,9b-tetrahydrobenzofuro[3,2-b]pyridin-1(2H)-yl)methanone] | < 100 nM | 
CN(C(=O)c1cc2c(cc1F)nc(N)c1cncn12)[C@@H]1COc2cc(-c3csc(C(F)(F)F)n3)ccc21 [Ff-231, (S)-4-amino-7-fluoro-N-methyl-N-(6-(2-(trifluoromethyl)thiazol-4-yl)-2,3-dihydrobenzofuran-3-yl)imidazo[1,5-a]quinoxaline-8-carboxamide] |  | 100 to 1000 nM
CN(C(=O)c1cc2c(cc1F)nc(N)c1cncn12)[C@@H]1COc2cc(C3CC3)ccc21 [Ff-546, (S)-4-amino-N-(6-cyclopropyl-2,3-dihydrobenzofuran-3-yl)-7-fluoro-N-methylimidazo[1,5-a]quinoxaline-8-carboxamide] | < 100 nM | 
Nc1nc2cc(F)c(C(=O)N3CCC[C@@H]4Oc5cc(C(F)(F)F)ccc5[C@@H]43)cc2n2cnc(F)c12 [Ff-621, (4-amino-3,7-difluoroimidazo[1,5-a]quinoxalin-8-yl)((4aS,9bS)-7-(trifluoromethyl)-3,4,4a,9b-tetrahydrobenzofuro[3,2-b]pyridin-1(2H)-yl)methanone] | 100 to 1000 nM | 
CN(C(=O)c1cc2c(cc1F)nc(N)c1cncn12)[C@@H](c1ccc(OC(F)F)cc1F)C(F)F [Fb-10, (S)-4-amino-N-(1-(4-(difluoromethoxy)-2-fluorophenyl)-2,2-difluoroethyl)-7-fluoro-N-methylimidazo[1,5-a]quinoxaline-8-carboxamide] |  | < 100 nM
CN(C(=O)c1cc2c(cc1F)nc(N)c1cncn12)[C@@H]1COc2cc(C#CC3(C#N)CC3)ccc21 [Ff-445, 4-amino-N-[(3S)-6-[2-(1-cyanocyclopropyl)ethynyl]-2,3-dihydrobenzofuran-3-yl]-7-fluoro-N-methyl-imidazo[1,5-a]quinoxaline-8-carboxamide] | < 100 nM | 
CN(Cc1nc(-c2cnn(C(F)(F)F)c2)cs1)C(=O)c1cc2c(cc1F)nc(N)c1cncn12 [Ff-550, 4-amino-7-fluoro-N-methyl-N-((4-(1-(trifluoromethyl)-1H-pyrazol-4-yl)thiazol-2-yl)methyl)imidazo[1,5-a]quinoxaline-8-carboxamide] | 100 to 1000 nM | 
CC1CN(C(=O)c2cc3c(cc2F)nc(N)c2cncn23)[C@H]2c3cc(F)ccc3C[C@H]2O1 (stereo partly drawn) [Ff-327, (4-amino-7-fluoroimidazo[1,5-a]quinoxalin-8-yl)((4aS,9aR)-6-fluoro-2-methyl-2,3,9,9a-tetrahydroindeno[2,1-b][1,4]oxazin-4(4aH)-yl)methanone] |  | < 100 nM
C[C@@H]1CN(C(=O)c2cc3c(cc2F)nc(N)c2cncn23)[C@H]2c3ccc(-c4cnn(C(F)F)c4)c(F)c3C[C@H]2O1 [Ff-199, (4-amino-7-fluoroimidazo[1,5-a]quinoxalin-8-yl)((2R,4aS,9aR)-7-(1-(difluoromethyl)-1H-pyrazol-4-yl)-8-fluoro-2-methyl-2,3,9,9a-tetrahydroindeno[2,1-b][1,4]oxazin-4(4aH)-yl)methanone] |  | < 100 nM
Cc1ncn2c1c(N)nc1cnc(C(=O)N3C[C@H](C)O[C@@H]4Cc5cc(C(F)(F)F)ccc5[C@@H]43)cc12 [Ff-498, (4-amino-3-methylimidazo[1,5-a]pyrido[3,4-e]pyrazin-8-yl)((2S,4aS,9aR)-2-methyl-7-(trifluoromethyl)-2,3,9,9a-tetrahydroindeno[2,1-b][1,4]oxazin-4(4aH)-yl)methanone] | < 100 nM | 
Nc1nc2cc(F)c(C(=O)N3CCOC[C@@H]3c3ccc(OC(F)(F)F)cc3)cc2n2cncc12 (single isomer, unassigned) [Ff-555] | < 100 nM | 
Nc1nc2cc(F)c(C(=O)N(Cc3ccc(C(F)(F)F)cc3F)C34COC(C3)C4)cc2n2cncc12 [Ff-272, 4-amino-N-(2-oxabicyclo[2.1.1]hexan-4-yl)-7-fluoro-N-(2-fluoro-4-(trifluoromethyl)benzyl)imidazo[1,5-a]quinoxaline-8-carboxamide] |  | < 100 nM
C[C@H]1OC[C@@H](N(C)C(=O)c2ccc3nc(N)c4cncn4c3c2)c2ccc(C(F)(F)F)cc21 (racemic) [Ff-42, Cis-4-amino-N-methyl-N-(1-methyl-7-(trifluoromethyl)isochroman-4-yl)imidazo[1,5-a]quinoxaline-8-carboxamide] |  | < 100 nM
C[C@@H]1OC[C@H](N(C)C(=O)c2ccc3nc(N)c4cncn4c3c2)c2ccc(C(F)(F)F)cc21 (single isomer, unassigned) [Ff-470] | < 100 nM | 
Nc1nc2cc(F)c(C(=O)N3C[C@H](F)CCC3c3ccc(C(F)(F)F)cn3)cc2n2cncc12 (mixture of isomers) [Ff-228, (4-amino-7-fluoroimidazo[1,5-a]quinoxalin-8-yl)((5R)-5-fluoro-2-(5-(trifluoromethyl)pyridin-2-yl)piperidin-1-yl)methanone] |  | < 100 nM
CN(C(=O)c1cc2c(cc1F)nc(N)c1cncn12)[C@@H](c1ccc(OC(F)(F)F)cc1F)C(F)F [Fb-11, (S)-4-amino-N-(2,2-difluoro-1-(2-fluoro-4-(trifluoromethoxy)phenyl)ethyl)-7-fluoro-N-methylimidazo[1,5-a]quinoxaline-8-carboxamide] |  | < 100 nM
Cc1ncn2c1c(N)nc1cc(Cl)c(C(=O)N(C)[C@@H]3COc4cc(C(F)(F)F)ccc43)cc12 [Ff-492, (S)-4-amino-7-chloro-N,3-dimethyl-N-(6-(trifluoromethyl)-2,3-dihydrobenzofuran-3-yl)imidazo[1,5-a]quinoxaline-8-carboxamide] | < 100 nM | 
CC1(C)CN(C(=O)c2cc3c(cc2F)nc(N)c2cncn23)[C@H]2c3ccc(C(F)(F)F)cc3C[C@H]2O1 [Ff-380, (4-amino-7-fluoroimidazo[1,5-a]quinoxalin-8-yl)((4aS,9aR)-2,2-dimethyl-7-(trifluoromethyl)-2,3,9,9a-tetrahydroindeno[2,1-b][1,4]oxazin-4(4aH)-yl)methanone] | < 100 nM | 
CN(C(=O)c1cc2c(cc1F)nc(N)c1cncn12)[C@H]1c2ccc(Br)cc2[C@@H]2C[C@@H]21 [Ff-330, 4-amino-N-((1aR,6R,6aS)-3-bromo-1,1a,6,6a-tetrahydrocyclopropa[a]inden-6-yl)-7-fluoro-N-methylimidazo[1,5-a]quinoxaline-8-carboxamide] |  | 100 to 1000 nM
Nc1nc2cc(Cl)c(C(=O)N3CC[C@@H]4C[C@H]3c3ccc(Cl)cc34)cc2n2cncc12 [Ff-487, (4-amino-7-chloroimidazo[1,5-a]quinoxalin-8-yl)((1S,5R)-7-chloro-1,3,4,5-tetrahydro-2H-1,5-methanobenzo[c]azepin-2-yl)methanone] | 100 to 1000 nM | 
Nc1nc2cc(F)c(C(=O)N3CCC(F)(F)C[C@@H]3c3ccc(OC(F)(F)F)cc3)cc2n2cncc12 [Ff-403, (R)-(4-amino-7-fluoroimidazo[1,5-a]quinoxalin-8-yl)(4,4-difluoro-2-(4-(trifluoromethoxy)phenyl)piperidin-1-yl)methanone] | 100 to 1000 nM | 
Cc1nc2cc([C@H]3CC[C@H](C)CN3C(=O)c3ccc4nc(N)c5cnc(C)n5c4c3)ccc2s1 [Ff-127] |  | 100 to 1000 nM
COc1cc(-c2cnn(C(F)F)c2)ccc1CN(C)C(=O)c1cc2c(cc1F)nc(N)c1cncn12 [Ff-553, 4-amino-N-(4-(1-(difluoromethyl)-1H-pyrazol-4-yl)-2-methoxybenzyl)-7-fluoro-N-methylimidazo[1,5-a]quinoxaline-8-carboxamide] | 100 to 1000 nM | 
CN(C(=O)c1cc2c(cn1)nc(N)c1cncn12)[C@H]1c2ccc(C(F)(F)F)cc2[C@H]2C[C@H]21 [Ff-256, 4-amino-N-methyl-N-((1aS,6R,6aR)-3-(trifluoromethyl)-1,1a,6,6a-tetrahydrocyclopropa[a]inden-6-yl)imidazo[1,5-a]pyrido[3,4-e]pyrazine-8-carboxamide] |  | 100 to 1000 nM
C[C@@H]1CC[C@@H]2Oc3cc(OC(F)(F)F)ccc3[C@@H]2N1C(=O)c1cc2c(cc1F)nc(N)c1cncn12 (single isomer, unassigned) [Ff-491] | < 100 nM | 
